# Test results: PubChem BioAssay AID2060603 (Molecular Pharmacology Branch, DTP, NCI, 2025)
# “And” between values parts separate entries of the source, which are not always exact repeats. Identical values can stand only once.
# System: 422866-222-R5-J1-PDC spheroid viability
# Assay: Anticancer human tumor 422866-222-R5-J1-PDC patient-derived pancreatic adenocarcinoma cell line growth inhibition [CLK]
# Settings: spheroids with HUVEC and MSC; for viability, T/C: stronger effect = lower value
# From the text: A high-throughput screen of multi-cell type tumor spheroids was designed to identify active combinations of […] and targeted small molecules. Complex spheroids include a stromal component modeled by human endothelial cells (HUVEC) and fibroblasts modeled by human mesenchymal stem cells (MSCs). The concentration ranges selected for each drug and investigational agent were based upon clinically achievable concentrations if the clinical Cmax of the agent was known.
# Compounds. The drugs and investigational agents: cirtuvivint (SM08502; NSC835563), CC-671 (NSC850746), vemurafenib (NSC761431), tapotoclax (NSC804041), sotorasib (NSC818433), adagrasib (NSC831453), MRTX-1133 (NSC836407), BAY2416964 (NSC825713), copanlisib (NSC816437), inavolisib (NSC800729), abemaciclib (NSC768073), osimertinib (NSC779217), entinostat (NSC756642), eltanexor (KPT-8602, NSC794443), venetoclax (NSC766270), ceralasertib (NSC777638), bortezomib (NSC756655), olaparib (NSC753686), talazoparib (NSC767125), alisertib (NSC759677), peposertib (NSC802822), gemcitabine (NSC613327), 5-fluorouracil (NSC19893), SN-38 (NSC673596), oxaliplatin (NSC266046), paclitaxel (NSC125973), and doxorubicin (NSC123127), were obtained from the National Cancer Institute (NCI) Developmental Therapeutics Program Chemical Repository. The FDA-approved anticancer drug set is available from the Developmental Therapeutics Program at https://dtp.cancer.gov/organization/dscb/obtaining/available plates.htm. […] The stock solutions were prepared in dimethyl sulfoxide (DMSO, Sigma-Aldrich, St. Louis, MO, cat. D2650), except for the platinum complexes which were prepared in saline (Quality Biological, Gaithersburg, MD, cat. 114-055-101), at 800-fold the tested concentration and stored at -70 degrees C prior to their use. All drugs and investigational agents were tested over a range starting from a high concentration at or near the clinical Cmax and decreasing in half-log increments. If the clinical Cmax for an agent had not been determined, the highest concentration tested was 10 microM.
# Cell Culture. All cells were maintained in an incubator at 37 degrees C and 5% CO2 with 95% humidity. The PDC lines were cultured according to standard operating procedures established by the NCI PDMR. Briefly, all PDCs were thawed and cultured in Matrigel-coated flasks prepared with a working solution of 1X Ham's F-12 nutrient mix, without supplementation (Invitrogen, Waltham, MA, cat. 11765054), 100 U/mL penicillin-streptomycin (Invitrogen, cat. 15140122), and 2.5% Matrigel (Corning Inc., Corning, NY, cat. 354248) for the first three passages. The 947758-054-R-J2-PDC line was cultured in 6B/Colon 1A media, which includes advanced DMEM/F-12 (Thermo Fisher Scientific, cat. 12634028), 10 mM HEPES (Thermo Fisher Scientific, cat. 15630080), 1X GlutaMAX supplement (Thermo Fisher Scientific, cat. 35050061), 0.1 mg/mL primocin (InvivoGen, cat. ant-pm-2), 10% defined fetal bovine serum, heat inactivated (HyClone Laboratories Inc., cat. SH30070.03HI), 1.25 mM N-Acetyl-L-cysteine (Sigma-Aldrich, cat. A9165), 10 mM nicotinamide (Sigma-Aldrich, cat. N0636), 1X B-27 supplement (Thermo Fisher Scientific, cat. 17504044), 1X N-2 supplement (Thermo Fisher Scientific, cat. 17502048), and 10 microM Y-27632 dihydrochloride (Tocris Bioscience, cat. 1254). The 876862-298-R-J1-PDC was cultured in 6E media, which includes all 6B/Colon 1A media components plus 50% L-WRN conditioned media (ATCC, cat. CRL-3276), 50 ng/mL recombinant human EGF recombinant protein (hEGF; Thermo Fisher Scientific, cat. PHG0311), 10 ng/mL recombinant human fibroblast growth factor 10 (hGFG-10; PeproTech, cat. 100-26), 1 ng/mL recombinant human fibroblast growth factor 2 (hFGF-2; PeproTech, cat. 100-18B), and 1 µM prostaglandin E2 (PGE2; Tocris, cat. 2296). The 227483-062-R1-J1-PDC line was cultured in Panc media, containing all 6E components except hFGF-2, with the addition of 500 nM SB-431542 (Selleckchem, cat. S1067) and 10 nM gastrin (Tocris, cat. 3006). […]
# 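Note: spheroids exposed to agents for seven days before readout.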
smiles,measurement,setting,value
Nc1ccn(C2OC(CO)C(O)C2(F)F)c(=O)n1 (centres undefined),"viability, T/C",compound 0.0316 µM,73.9% and 72.8%
same,"viability, T/C",compound 0.1 µM,60.1% and 44.8%
same,"viability, T/C",compound 0.316 µM,44.6% and 38%
same,"viability, T/C",compound 1 µM,41.9% and 46.5%
same,"viability, T/C",compound 3.16 µM,41.6% and 39.7%
same,"viability, T/C",compound 10 µM,36.3% and 40.9%
same,IC50,curve of compound,221 nM and 79.5 nM
Nc1ccn(C2OC(CO)C(O)C2(F)F)c(=O)n1 (centres undefined) + CN1CCN(c2cc(C(=O)Nc3cc4cc(-c5cnn(C)c5)ccc4cn3)ccn2)CC1,IC50,"curve of first compound, second compound 0.0316 µM",74.3 nM
same,IC50,"curve of first compound, second compound 0.1 µM",84.6 nM
same,IC50,"curve of first compound, second compound 0.316 µM",156 nM
same,IC50,"curve of first compound, second compound 1 µM",< 31.6 nM
same,IC50,"curve of first compound, second compound 3.16 µM",< 31.6 nM
same,IC50,"curve of first compound, second compound 10 µM",< 31.6 nM
same,"viability, T/C","second compound 0.0316 µM, first compound 0.0316 µM",62.9%
same,"viability, T/C","second compound 0.0316 µM, first compound 0.1 µM",46.5%
same,"viability, T/C","second compound 0.0316 µM, first compound 0.316 µM",37.8%
same,"viability, T/C","second compound 0.0316 µM, first compound 1 µM",42%
same,"viability, T/C","second compound 0.0316 µM, first compound 3.16 µM",40.3%
same,"viability, T/C","second compound 0.0316 µM, first compound 10 µM",38.1%
same,"viability, T/C","second compound 0.1 µM, first compound 0.0316 µM",74.4%
same,"viability, T/C","second compound 0.1 µM, first compound 0.1 µM",44.9%
same,"viability, T/C","second compound 0.1 µM, first compound 0.316 µM",57.2%
same,"viability, T/C","second compound 0.1 µM, first compound 1 µM",45.2%
same,"viability, T/C","second compound 0.1 µM, first compound 3.16 µM",38.7%
same,"viability, T/C","second compound 0.1 µM, first compound 10 µM",37.5%
same,"viability, T/C","second compound 0.316 µM, first compound 0.0316 µM",66.9%
same,"viability, T/C","second compound 0.316 µM, first compound 0.1 µM",50.9%
same,"viability, T/C","second compound 0.316 µM, first compound 0.316 µM",46.9%
same,"viability, T/C","second compound 0.316 µM, first compound 1 µM",55.9%
same,"viability, T/C","second compound 0.316 µM, first compound 3.16 µM",45.6%
same,"viability, T/C","second compound 0.316 µM, first compound 10 µM",46%
same,"viability, T/C","second compound 1 µM, first compound 0.0316 µM",25.9%
same,"viability, T/C","second compound 1 µM, first compound 0.1 µM",20.6%
same,"viability, T/C","second compound 1 µM, first compound 0.316 µM",21.3%
same,"viability, T/C","second compound 1 µM, first compound 1 µM",16.7%
same,"viability, T/C","second compound 1 µM, first compound 3.16 µM",19.1%
same,"viability, T/C","second compound 1 µM, first compound 10 µM",14.9%
same,"viability, T/C","second compound 3.16 µM, first compound 0.0316 µM",8.63%
same,"viability, T/C","second compound 3.16 µM, first compound 0.1 µM",8.77%
same,"viability, T/C","second compound 3.16 µM, first compound 0.316 µM",10.5%
same,"viability, T/C","second compound 3.16 µM, first compound 1 µM",9.38%
same,"viability, T/C","second compound 3.16 µM, first compound 3.16 µM",10.2%
same,"viability, T/C","second compound 3.16 µM, first compound 10 µM",10.9%
same,"viability, T/C","second compound 10 µM, first compound 0.0316 µM",1.24%
same,"viability, T/C","second compound 10 µM, first compound 0.1 µM",1.59%
same,"viability, T/C","second compound 10 µM, first compound 0.316 µM",1.16%
same,"viability, T/C","second compound 10 µM, first compound 1 µM",1.57%
same,"viability, T/C","second compound 10 µM, first compound 3.16 µM",4.23%
same,"viability, T/C","second compound 10 µM, first compound 10 µM",3.93%
